From patent US20230085307A1, “PYRIDAZINONE COMPOUND AND HERBICIDE” (NISSAN CHEMICAL CORPORATION, priority 2019, published 2023)

Key:
[1] = tested on: windgrass; assay: Test Example 4: herbicidal effect by soil treatment (Table 19, symbol L); format: in vivo, windgrass (Apera spica-venti); conditions: amount of applied herbicide 320 g/ha
How it was run: (§1)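 In this soil treatment, the formulated compound reached the seeds only through the soil: seeds were buried about 1.5 cm deep in sterilized diluvial soil, then the diluted emulsion was sprayed over the surface. After three weeks at 25° C. to 30° C. in a greenhouse, effects were graded on criteria from an earlier test.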

[2] = tested on: green foxtail; assay: Test Example 5: herbicidal effect by foliage application, plastic box (Table 20, symbol G); format: in vivo, green foxtail (Setaria viridis); conditions: foliage application, 320 g/ha, evaluated three weeks after application
How it was run: (§2)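 Plants were sown into sterilized diluvial soil under about 1.5 cm cover and kept in a greenhouse at 25° C. to 30° C. Fourteen days on, foliage received an even spray of the diluted emulsion. Herbicidal or crop effect was judged three weeks afterwards.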

[3] = tested on: persian speedwell; assay: Test Example 4: herbicidal effect by soil treatment (Table 19, symbol R); format: in vivo, Persian speedwell (Veronica persica); conditions: amount of applied herbicide 320 g/ha
How it was run: as §1

[4] = tested on: southern crabgrass; assay: Test Example 4: herbicidal effect by soil treatment (Table 19, symbol F); format: in vivo, southern crabgrass (Digitaria ciliaris); conditions: amount of applied herbicide 320 g/ha
How it was run: as §1

[5] = tested on: late watergrass; assay: Test Example 1: herbicidal activity, application before weed generation under submerged conditions (Table 16, symbol A); format: in vivo, late watergrass (Echinochloa oryzicola); conditions: 320 g/ha applied herbicide
How it was run: (§3)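 Submerged Wagner pots (alluvial soil, 4 cm water) sown with weed seeds and planted with 2.5-leaf rice seedlings; emulsifiable concentrate diluted in water applied to water surface on sowing day. Held in greenhouse at 25-30 °C; injury scored 0-5 by herbicidal rate after three weeks.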

[6] = tested on: barnyard grass; assay: Test Example 3: herbicidal effect by foliage application, Wagner pot (Table 18, symbol H); format: in vivo, barnyard grass (Echinochloa crus-galli); conditions: amount of applied herbicide 320 g/ha
How it was run: (§4)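 Plants were sown in alluvial soil held under 0.1–0.5 cm standing water and grown 14 days in a greenhouse at 25–30 °C. An emulsifiable formulation, water-diluted to the set dose, was then sprayed onto the foliage, and effects were scored three weeks later using previously defined criteria.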

[7] = tested on: redroot pigweed; assay: Test Example 5: herbicidal effect by foliage application, plastic box (Table 20, symbol N); format: in vivo, redroot pigweed (Amaranthus retroflexus); conditions: foliage application, 320 g/ha, evaluated three weeks after application
How it was run: as §2

[8] = tested on: velvetleaf; assay: Test Example 5: herbicidal effect by foliage application, plastic box (Table 20, symbol M); format: in vivo, velvetleaf (Abutilon theophrasti); conditions: foliage application, 320 g/ha, evaluated three weeks after application
How it was run: as §2

[9] = tested on: velvetleaf; assay: Test Example 4: herbicidal effect by soil treatment (Table 19, symbol M); format: in vivo, velvetleaf (Abutilon theophrasti); conditions: amount of applied herbicide 320 g/ha
How it was run: as §1

[10] = tested on: chickweed; assay: Test Example 5: herbicidal effect by foliage application, plastic box (Table 20, symbol P); format: in vivo, common chickweed (Stellaria media); conditions: foliage application, 320 g/ha, evaluated three weeks after application
How it was run: as §2

[11] = tested on: barnyard grass; assay: Test Example 4: herbicidal effect by soil treatment (Table 19, symbol H); format: in vivo, barnyard grass (Echinochloa crus-galli); conditions: amount of applied herbicide 320 g/ha
How it was run: as §1

[12] = tested on: rice flat sedge; assay: Test Example 3: herbicidal effect by foliage application, Wagner pot (Table 18, symbol E); format: in vivo, rice flat sedge (Cyperus iria); conditions: amount of applied herbicide 320 g/ha
How it was run: as §4

[13] = tested on: blackgrass; assay: Test Example 4: herbicidal effect by soil treatment (Table 19, symbol J); format: in vivo, blackgrass (Alopecurus myosuroides); conditions: amount of applied herbicide 320 g/ha
How it was run: as §1

[14] = tested on: lambsquarters; assay: Test Example 4: herbicidal effect by soil treatment (Table 19, symbol O); format: in vivo, lambsquarters (Chenopodium album); conditions: amount of applied herbicide 320 g/ha
How it was run: as §1

[15] = tested on: barnyard grass; assay: Test Example 5: herbicidal effect by foliage application, plastic box (Table 20, symbol H); format: in vivo, barnyard grass (Echinochloa crus-galli); conditions: foliage application, 320 g/ha, evaluated three weeks after application
How it was run: as §2

[16] = tested on: chickweed; assay: Test Example 4: herbicidal effect by soil treatment (Table 19, symbol P); format: in vivo, common chickweed (Stellaria media); conditions: amount of applied herbicide 320 g/ha
How it was run: as §1

[17] = tested on: Chinese sprangletop; assay: Test Example 3: herbicidal effect by foliage application, Wagner pot (Table 18, symbol D); format: in vivo, chinese sprangletop (Leptochloa chinensis); conditions: amount of applied herbicide 320 g/ha
How it was run: as §4

[18] = tested on: southern crabgrass; assay: Test Example 5: herbicidal effect by foliage application, plastic box (Table 20, symbol F); format: in vivo, southern crabgrass (Digitaria ciliaris); conditions: foliage application, 320 g/ha, evaluated three weeks after application
How it was run: as §2

[19] = tested on: Italian ryegrass; assay: Test Example 5: herbicidal effect by foliage application, plastic box (Table 20, symbol K); format: in vivo, Italian ryegrass (Lolium multiflorum); conditions: foliage application, 320 g/ha, evaluated three weeks after application
How it was run: as §2

[20] = tested on: oval-leafed pondweed; assay: Test Example 1: herbicidal activity, application before weed generation under submerged conditions (Table 16, symbol C); format: in vivo, oval-leafed pondweed (Monochoria vaginalis); conditions: 320 g/ha applied herbicide
How it was run: as §3

[21] = tested on: blackgrass; assay: Test Example 5: herbicidal effect by foliage application, plastic box (Table 20, symbol J); format: in vivo, blackgrass (Alopecurus myosuroides); conditions: foliage application, 320 g/ha, evaluated three weeks after application
How it was run: as §2

[22] = tested on: Japanese bulrush; assay: Test Example 1: herbicidal activity, application before weed generation under submerged conditions (Table 16, symbol B); format: in vivo, Japanese bulrush (Schoenoplectus juncoides); conditions: 320 g/ha applied herbicide
How it was run: as §3

[23] = tested on: windgrass; assay: Test Example 5: herbicidal effect by foliage application, plastic box (Table 20, symbol L); format: in vivo, windgrass (Apera spica-venti); conditions: foliage application, 320 g/ha, evaluated three weeks after application
How it was run: as §2

[24] = tested on: redroot pigweed; assay: Test Example 4: herbicidal effect by soil treatment (Table 19, symbol N); format: in vivo, redroot pigweed (Amaranthus retroflexus); conditions: amount of applied herbicide 320 g/ha
How it was run: as §1

[25] = tested on: wild oat; assay: Test Example 5: herbicidal effect by foliage application, plastic box (Table 20, symbol I); format: in vivo, wild oat (Avena fatua); conditions: foliage application, 320 g/ha, evaluated three weeks after application
How it was run: as §2

[26] = tested on: wild oat; assay: Test Example 4: herbicidal effect by soil treatment (Table 19, symbol I); format: in vivo, wild oat (Avena fatua); conditions: amount of applied herbicide 320 g/ha
How it was run: as §1

[27] = tested on: lambsquarters; assay: Test Example 5: herbicidal effect by foliage application, plastic box (Table 20, symbol O); format: in vivo, lambsquarters (Chenopodium album); conditions: foliage application, 320 g/ha, evaluated three weeks after application
How it was run: as §2

[28] = tested on: persian speedwell; assay: Test Example 5: herbicidal effect by foliage application, plastic box (Table 20, symbol R); format: in vivo, Persian speedwell (Veronica persica); conditions: foliage application, 320 g/ha, evaluated three weeks after application
How it was run: as §2

[29] = tested on: Italian ryegrass; assay: Test Example 4: herbicidal effect by soil treatment (Table 19, symbol K); format: in vivo, Italian ryegrass (Lolium multiflorum); conditions: amount of applied herbicide 320 g/ha
How it was run: as §1

[30] = tested on: green foxtail; assay: Test Example 4: herbicidal effect by soil treatment (Table 19, symbol G); format: in vivo, green foxtail (Setaria viridis); conditions: amount of applied herbicide 320 g/ha
How it was run: as §1

Structure (SMILES) | herbicidal effect on L: windgrass [1] | herbicidal effect on G: green foxtail (criteria 0-5) [2] | herbicidal effect on R: persian speedwell [3] | herbicidal effect on F: southern crabgrass [4] | Herbicidal effect on A: late watergrass (grade 0-5) [5] | herbicidal effect on H: barnyard grass [6] | herbicidal effect on N: redroot pigweed (criteria 0-5) [7] | herbicidal effect on M: velvetleaf (criteria 0-5) [8] | herbicidal effect on M: velvetleaf [9] | herbicidal effect on P: chickweed (criteria 0-5) [10] | herbicidal effect on H: barnyard grass [11] | herbicidal effect on E: rice flat sedge [12] | herbicidal effect on J: blackgrass [13] | herbicidal effect on O: lambsquarters [14] | herbicidal effect on H: barnyard grass (criteria 0-5) [15] | herbicidal effect on P: chickweed [16] | herbicidal effect on D: Chinese sprangletop [17] | herbicidal effect on F: southern crabgrass (criteria 0-5) [18] | herbicidal effect on K: Italian ryegrass (criteria 0-5) [19] | Herbicidal effect on C: oval-leafed pondweed (grade 0-5) [20] | also measured
CCCC(=O)Oc1c(C)nn(C)c(=O)c1-c1c(-c2cccc(OC(C)(C)C)c2)sc2ccc(F)cc12 [2-224] | 0 (Herbicidal rate of 5% or less (almost no effect)) | 1 (Herbicidal rate of 5% or more and less than 20%) | 4 (Herbicidal rate of 70% or more and less than 90%) | 0 (Herbicidal rate of 5% or less (almost no effect)) | 5 (Herbicidal rate of 90% or more (almost completely withered)) | 4 (Herbicidal rate of 70% or more and less than 90%) | 2 (Herbicidal rate of 20% or more and less than 40%) | 3 (Herbicidal rate of 40% or more and less than 70%) | 0 (Herbicidal rate of 5% or less (almost no effect)) | 5 (Herbicidal rate of 90% or more (almost completely withered)) | 0 (Herbicidal rate of 5% or less (almost no effect)) | 3 (Herbicidal rate of 40% or more and less than 70%) | 0 (Herbicidal rate of 5% or less (almost no effect)) | 0 (Herbicidal rate of 5% or less (almost no effect)) | 3 (Herbicidal rate of 40% or more and less than 70%) | 0 (Herbicidal rate of 5% or less (almost no effect)) | 4 (Herbicidal rate of 70% or more and less than 90%) | 0 (Herbicidal rate of 5% or less (almost no effect)) | 0 (Herbicidal rate of 5% or less (almost no effect)) | 0 (Herbicidal rate of 5% or less (almost no effect)) | herbicidal effect on J: blackgrass (criteria 0-5) [21]: 0 (Herbicidal rate of 5% or less (almost no effect)); Herbicidal effect on B: Japanese bulrush (grade 0-5) [22]: 0 (Herbicidal rate of 5% or less (almost no effect)); herbicidal effect on L: windgrass (criteria 0-5) [23]: 0 (Herbicidal rate of 5% or less (almost no effect)); herbicidal effect on N: redroot pigweed [24]: 0 (Herbicidal rate of 5% or less (almost no effect)); herbicidal effect on I: wild oat (criteria 0-5) [25]: 0 (Herbicidal rate of 5% or less (almost no effect)); herbicidal effect on I: wild oat [26]: 0 (Herbicidal rate of 5% or less (almost no effect)); herbicidal effect on O: lambsquarters (criteria 0-5) [27]: 3 (Herbicidal rate of 40% or more and less than 70%); herbicidal effect on R: persian speedwell (criteria 0-5) [28]: 5 (Herbicidal rate of 90% or more (almost completely withered)); herbicidal effect on K: Italian ryegrass [29]: 0 (Herbicidal rate of 5% or less (almost no effect)); herbicidal effect on G: green foxtail [30]: 0 (Herbicidal rate of 5% or less (almost no effect))
CCCC(=O)Oc1c(C)nn(C)c(=O)c1-c1c(-c2cccc(C(F)(F)F)c2)sc2ccc(F)cc12 [2-232] | 0 (Herbicidal rate of 5% or less (almost no effect)) | 0 (Herbicidal rate of 5% or less (almost no effect)) | 3 (Herbicidal rate of 40% or more and less than 70%) | 0 (Herbicidal rate of 5% or less (almost no effect)) | 3 (Herbicidal rate of 40% or more and less than 70%) | 4 (Herbicidal rate of 70% or more and less than 90%) | 5 (Herbicidal rate of 90% or more (almost completely withered)) | 5 (Herbicidal rate of 90% or more (almost completely withered)) | 0 (Herbicidal rate of 5% or less (almost no effect)) | 5 (Herbicidal rate of 90% or more (almost completely withered)) | 0 (Herbicidal rate of 5% or less (almost no effect)) | 5 (Herbicidal rate of 90% or more (almost completely withered)) | 0 (Herbicidal rate of 5% or less (almost no effect)) | 0 (Herbicidal rate of 5% or less (almost no effect)) | 0 (Herbicidal rate of 5% or less (almost no effect)) | 3 (Herbicidal rate of 40% or more and less than 70%) | 5 (Herbicidal rate of 90% or more (almost completely withered)) | 0 (Herbicidal rate of 5% or less (almost no effect)) | 0 (Herbicidal rate of 5% or less (almost no effect)) | 0 (Herbicidal rate of 5% or less (almost no effect)) | herbicidal effect on J: blackgrass (criteria 0-5) [21]: 0 (Herbicidal rate of 5% or less (almost no effect)); Herbicidal effect on B: Japanese bulrush (grade 0-5) [22]: 0 (Herbicidal rate of 5% or less (almost no effect)); herbicidal effect on L: windgrass (criteria 0-5) [23]: 1 (Herbicidal rate of 5% or more and less than 20%); herbicidal effect on N: redroot pigweed [24]: 0 (Herbicidal rate of 5% or less (almost no effect)); herbicidal effect on I: wild oat (criteria 0-5) [25]: 0 (Herbicidal rate of 5% or less (almost no effect)); herbicidal effect on I: wild oat [26]: 0 (Herbicidal rate of 5% or less (almost no effect)); herbicidal effect on O: lambsquarters (criteria 0-5) [27]: 3 (Herbicidal rate of 40% or more and less than 70%); herbicidal effect on R: persian speedwell (criteria 0-5) [28]: 5 (Herbicidal rate of 90% or more (almost completely withered)); herbicidal effect on K: Italian ryegrass [29]: 0 (Herbicidal rate of 5% or less (almost no effect)); herbicidal effect on G: green foxtail [30]: 0 (Herbicidal rate of 5% or less (almost no effect))
